Assay results published in ChEMBL document CHEMBL5647687, “Beta-adrenoceptor control of peroxidase synthesis in nasal glands” (Ann Otol Rhinol Laryngol, 1990).
The source made the active and inactive calls. No cut-off for these calls is given here.

Key:
Format in all cases: functional, organism-based
Felis catus [1] = assay: Effect on distribution of peroxidase in acinar cells of cat at 0.3 mg/kg, iv dosed 10 mins before dosing of 7.3 mg/kg, iv propranolol and measured after 60 mins post ligand dose by electron microscopy
Felis catus [2] = assay: Effect on peroxidase reaction product in r-ER, Golgi complex, and secretory granules in acinar cells of cat at 0.3 mg/kg, iv dosed 10 mins before dosing of 7.3 mg/kg, iv propranolol and measured after 60 mins post ligand dose
Felis catus [3] = assay: Effect on activity of peroxidase in acinar cells of cat at 0.3 mg/kg, iv dosed 10 mins before dosing of 7.3 mg/kg, iv propranolol and measured after 60 mins post ligand dose
Felis catus [4] = assay: Effect on activity of peroxidase in acinar cells of cat at 0.3 mg/kg, iv dosed 10 mins before dosing of 7.3 mg/kg, iv propranolol and measured after 20 mins post ligand dose
Felis catus [5] = assay: Effect on distribution of peroxidase in acinar cells of cat at 0.3 mg/kg, iv dosed 10 mins before dosing of 7.3 mg/kg, iv propranolol and measured after 20 mins post ligand dose by electron microscopy
Felis catus [6] = assay: Effect on peroxidase reaction product in r-ER, Golgi complex, and secretory granules in acinar cells of cat at 0.3 mg/kg, iv dosed 10 mins before dosing of 7.3 mg/kg, iv propranolol and measured after 20 mins post ligand dose
Felis catus [7] = assay: Increase in granule content containing the peroxidase reaction product discharged into acinar lumen in cat at 0.3 mg/kg, iv after 20 mins
Felis catus [8] = assay: Reduction in secretion rate of electron dense peroxidase-positive granules in cat at 0.3 mg/kg, iv after 60 mins
Felis catus [9] = assay: Effect on activity of peroxidase in cat acinar cells at 7.3 mg/kg, iv administered as single dose measured after 30 mins
Felis catus [10] = assay: Effect on activity of peroxidase in cat in rough golgi complex at 7.3 mg/kg, iv administered as single dose measured after 5 hrs; conditions: Golgi body
Felis catus [11] = assay: Effect on activity of peroxidase in cat rough endoplasmic reticulum at 7.3 mg/kg, iv administered as single dose measured after 5 hrs
Felis catus [12] = assay: Effect on activity of peroxidase in cat in rough golgi complex at 7.3 mg/kg, iv administered as single dose measured after 9 hrs; conditions: Golgi body
Felis catus [13] = assay: Decrease in Peroxidase activity in acinar cells of the nasal glands of cat at 8 mg/kg, iv dosed over 7 hours
Felis catus [14] = assay: Effect on localization of peroxidase in secretory granules of cat at 7.3 mg/kg, iv administered as single dose measured after 30 mins by electron microscopy
Felis catus [15] = assay: Effect on localization of peroxidase in rough endoplasmic reticulum of cat at 7.3 mg/kg, iv administered as single dose measured after 30 mins by electron microscopy
Felis catus [16] = assay: Effect on localization of peroxidase in rough golgi complex of cat at 7.3 mg/kg, iv administered as single dose measured after 30 mins by electron microscopy; conditions: Golgi body
Felis catus [17] = assay: Effect on activity of peroxidase in cat rough endoplasmic reticulum at 7.3 mg/kg, iv administered as single dose measured after 9 hrs
Felis catus [18] = assay: Reduction in peroxidase-positive secretory granules in cat at 7.3 mg/kg, iv administered as single dose measured after 5 hrs by electron microscopy
Felis catus [19] = assay: Increase in secretory granules without peroxidase activity in cat at 7.3 mg/kg, iv administered as single dose measured after 9 hrs by electron microscopy
Felis catus [20] = assay: Increase in electron-lucent secretory granules in cat at 7.3 mg/kg, iv administered as single dose measured after 5 hrs by electron microscopy
Felis catus [21] = assay: Decrease in Peroxidase activity in rough endoplasmic reticulum of cat at 8 mg/kg, iv dosed over 7 hours

## CC(C)NCC(O)c1ccc(O)c(O)c1 (stereo unspecified)
Felis catus [1]
  Activity: inactive
Felis catus [2]
  Activity: inactive
Felis catus [3]
  Activity: inactive
Felis catus [4]
  Activity: inactive
Felis catus [5]
  Activity: inactive
Felis catus [6]
  Activity: inactive
Felis catus [7]
  Activity: Active
Felis catus [8]
  Activity: Active

## CC(C)NCC(O)COc1cccc2ccccc12 (stereo unspecified)
Felis catus [9]
  Activity: inactive
Felis catus [10]
  Activity: inactive
Felis catus [11]
  Activity: inactive
Felis catus [12]
  Activity: inactive
Felis catus [13]
  Activity: Active
Felis catus [14]
  Activity: inactive
Felis catus [15]
  Activity: inactive
Felis catus [16]
  Activity: inactive
Felis catus [17]
  Activity: inactive
Felis catus [18]
  Activity: Active
Felis catus [19]
  Activity: Active
Felis catus [20]
  Activity: Active
Felis catus [21]
  Activity: Active
